Results as given in patent US8507411B2, “Neoglycorandomization and digitoxin analogs” (priority 2004, dated 2013).
pIC50: −log10 of the molar value. Read-outs that look alike come from different tables or passages of the source.

Key:
Du145 = assay: High-throughput calcein AM cytotoxicity assay, Du145; format: cell-based, human; details: Du145 cells
Excerpt: (§1) Standard errors are depicted with error bars.

MCF7 = assay: High-throughput calcein AM cytotoxicity assay, MCF7; format: cell-based, human; details: MCF7 cells
Excerpt: as §1

HCT-116 = assay: High-throughput calcein AM cytotoxicity assay, HCT-116; format: cell-based, human; details: HCT-116 cells
Excerpt: as §1

Hep3B = assay: High-throughput calcein AM cytotoxicity assay, Hep3B; format: cell-based, human; details: Hep 3B cells
Excerpt: as §1

NCI-H460 = assay: High-throughput calcein AM cytotoxicity assay, NCI-H460; format: cell-based, human; details: NCI-H460 cells
Excerpt: as §1

A549 = assay: High-throughput calcein AM cytotoxicity assay, A549; format: cell-based, human; details: A549 cells
Excerpt: as §1

NCI/ADR-RES = assay: cells; format: cell-based, human; details: NCI/ADR-RES cells
Excerpt: (§2) In the assay, live cells were distinguished by the presence of a ubiquitous intracellular enzymatic activity which converts the non-fluorescent cell-permeable molecule calcein AM to the intensely fluorescent molecule calcein, which is retained within live cells. The IC50 value for each library member represents at least six replicates of dose-response experiments conducted over five concentrations using two-fold dilutions. […] Standard errors are depicted with error bars. Numerical values and corresponding error values can be found in Table 4. Du145: […]; MCF7: human breast carcinoma; HCT-116: human colon carcinoma, Hep3B: human liver carcinoma; SF-268: human CNS glioblastoma; SK-OV-3: human ovary adenocarcinoma; NCI-H460: human lung carcinoma; A549: human lung adenocarcinoma; NCI/ADR-RES: human breast carcinoma; NmuMG: mouse mammary normal epithelial.
(§3) Cell Culture: All cell lines except NmuMG were maintained in RPMI 1640 medium from InVitrogen (Cat No. 11875-085) supplemented with 10% w/v fetal bovine serum (FBS) from ICN (Cat No. 2916154) and penicillin-streptomycin (PS) (100 U/mL and 100 μg/mL) from InVitrogen (Cat No. 15140-122). NmuMG cells were maintained in DMEM medium from InVitrogen (Cat No. 11965-084) supplemented with 10% w/v fetal bovine serum (FBS) from ICN (Cat No. 2916154), 10 μg/ml insulin (InVitrogen Cat No 12585-014), and penicillin-streptomycin (PS) (100 U/mL and 100 μg/mL) from InVitrogen (Cat No. 15140-122). Cells were harvested by trypsinization using 0.25% w/v trypsin and 0.1% w/v EDTA from InVitrogen (Cat No. 15-050-057) and then counted in a hemocytometer in duplicate with better than 10% agreement in field counts. Cells were plated at a cell density of 10,000-15,000 cells/well of each Corning Costar 96-well black tissue culture treated microtiter plate (Fisher Cat No. 07-200-627). Cells were grown for 1 h at 37° C., with 5% CO2 in a humidified incubator to allow cell attachment to occur before compound addition.
(§4) Library Member Handling and Preparation for Cytotoxicity Assays: Library members were stored at −20° C. under dessicating conditions before the assay. Library member stocks (100×) were prepared in Corning Costar polypropylene 96-well V-bottom polypropylene microtiter plates (Fisher Cat No. 07-200-695). Five serial 1:2 dilutions were made with anhydrous DMSO at 100× the final concentration used in the assay.
(§5) Library Member Addition: The library member-containing plates were diluted 1:10 with complete cell culture media. The 10× stocks (10 μL) were added to the attached cells using a Biomek FX liquid handler (Beckman-Coulter). Library member stocks (10 μL) were added to 90 μL of cells in each plate to insure full mixing of stocks with culture media using a Beckman FX liquid handler with 96-well head.
(§6) Determination of Cytotoxicity: Cells were incubated with the library members for 72 h before fluorescence reading. Test plates were removed from the incubator and washed 1× in sterile PBS to remove serum containing calcium esterases. Calcein AM reagent (30 μL, […]) was added and the cells were incubated for 30 min at 37° C. Plates were read for emission using a fluorescein filter (excitation 485 nm, emission 535 nm).
(§7) IC50 Calculation: For each library member, at least six dose response experiments were conducted. […] To calculate IC50, percent inhibitions were plotted as a function of log [concentration] and then fit to a four-parameter logistic model that allowed for a variable Hill slope using XLfit 4.1.
(§8) Cytotoxicity Assays. All cell lines except NmuMG were maintained in RPMI 1640 medium supplemented with 10% w/v fetal bovine serum (FBS) and penicillin-streptomycin (PS) (100 U/mL and 100 μg/mL).

SF-268 = assay: cells; format: cell-based, human; details: SF-268 cells
Excerpt: as §2, §3, §4, §5, §6, §7, §8

SK-OV-3 = assay: cells; format: cell-based, human; details: SK-OV-3 cells
Excerpt: as §2, §3, §4, §5, §6, §7, §8

NmuMG = assay: cells; format: cell-based, mouse
Excerpt: as §2, §3, §4, §5, §6, §7, §8

[1] = NmuMG mouse mammary normal epithelial control line, read-out: IC50, NmuMG
[2] = NmuMG cells (mouse mammary normal epithelial control line), read-out: IC50

Compound	pIC50 (Du145; read-out: IC50, Du145)	pIC50 (MCF7; read-out: IC50, MCF7)	pIC50 (HCT-116; read-out: IC50, HCT-116)	pIC50 (Hep3B; read-out: IC50, Hep 3B)	pIC50 (NCI-H460; read-out: IC50, NCI-H460)	pIC50 (A549; read-out: IC50, A549)	pIC50 (NCI/ADR-RES; read-out: IC50, NCI/ADR-RES)	pIC50 (SF-268; read-out: IC50, SF-268)	pIC50 (SK-OV-3; read-out: IC50, SK-OV-3)	pIC50 (NmuMG; [1])	pIC50 (NmuMG; [2])	pIC50 (Du145; read-out: IC50)	pIC50 (MCF7; read-out: IC50)	pIC50 (HCT-116; read-out: IC50)	pIC50 (Hep3B; read-out: IC50)	pIC50 (NCI-H460; read-out: IC50)	pIC50 (A549; read-out: IC50)	pIC50 (NCI/ADR-RES; read-out: IC50)	pIC50 (SF-268; read-out: IC50)	pIC50 (SK-OV-3; read-out: IC50)
CON([C@H]1CC[C@@]2(C)[C@H](CC[C@@H]3[C@@H]2CC[C@]2(C)[C@@H](C4=CC(=O)OC4)CC[C@]32O)C1)[C@@H]1OC[C@@H](O)[C@@H](O)[C@H]1O [6β, D-riboside]	6.14	5.52	5.89	6.05	6.05	5.99	6.18	5.74	5.77	6.32										
CON(C1CCC2(C)C(CCC3C2CCC2(C)C(C4=CC(=O)OC4)CCC32O)C1)C1OC(CO)C(O)C(O)C1O [25α, D-guloside]	< 4.60	< 4.60	< 4.60	< 4.60	< 4.60	< 4.60	< 4.60	< 4.60	< 4.60		< 4.60									
CON([C@H]1CC[C@@]2(C)[C@H](CC[C@@H]3[C@@H]2CC[C@]2(C)[C@@H](C4=CC(=O)OC4)CC[C@]32O)C1)[C@H]1OC[C@H](O)[C@@H](O)[C@H]1O [14β, L-lyxoside]	5.62	5.35	5.10	6.22	5.30	6.15	6.14	5.96	5.38	6.05										
CON([C@H]1CC[C@@]2(C)[C@H](CC[C@@H]3[C@@H]2CC[C@]2(C)[C@@H](C4=CC(=O)OC4)CC[C@]32O)C1)[C@H]1O[C@@H](CO)[C@H](O)[C@H](O)[C@@H]1O [17β, L-alloside]	6.10	6.05	6.30	6.10	6.16	6.62	6.80	6.40	6.15	6.48										
L-rhamnoside [16β]	6.77	5.74	6.05	6.27	6.48	6.15	6.46	5.48	5.40	< 4.60										
CON(C1CCC2(C)C(CCC3C2CCC2(C)C(C4=CC(=O)OC4)CCC32O)C1)C1OCC(O)C(O)C1O [5α, L-riboside]	< 4.60	< 4.60	< 4.60	< 4.60	< 4.60	< 4.60	< 4.60	< 4.60	< 4.60	< 4.60										
CON(C1CCC2(C)C(CCC3C2CCC2(C)C(C4=CC(=O)OC4)CCC32O)C1)C1OC(CO)C(O)C(O)C1O [28α, L-idoside]	< 4.60	< 4.60	< 4.60	< 4.60	< 4.60	< 4.60	< 4.60	< 4.60	< 4.60		< 4.60									
CON(C1CCC2(C)C(CCC3C2CCC2(C)C(C4=CC(=O)OC4)CCC32O)C1)C1OC(CO)C(O)C(O)C1O [40α, D-taloside]											< 4.60	< 4.60	< 4.60	< 4.60	< 4.60	< 4.60	< 4.60	< 4.60	< 4.60	< 4.60
CON(C1CCC2(C)C(CCC3C2CCC2(C)C(C4=CC(=O)OC4)CCC32O)C1)C1OC(CO)C(O)C(O)C1O [39α, L-taloside]											< 4.60	< 4.60	< 4.60	< 4.60	< 4.60	< 4.60	< 4.60	< 4.60	< 4.60	< 4.60
CON(C1CCC2(C)C(CCC3C2CCC2(C)C(C4=CC(=O)OC4)CCC32O)C1)C1OC(CO)C(O)C(O)C1NC(C)=O [34α, N-acetyl-D-galactosaminoside]											< 4.60	< 4.60	< 4.60	< 4.60	< 4.60	< 4.60	< 4.60	< 4.60	< 4.60	< 4.60
CON([C@H]1CC[C@@]2(C)[C@H](CC[C@@H]3[C@@H]2CC[C@]2(C)[C@@H](C4=CC(=O)OC4)CC[C@]32O)C1)[C@H]1O[C@@H](CO)[C@H](O)[C@@H](O)[C@H]1O [26β, L-mannoside]	5.70	5.52	5.38	5.70	5.80	5.77	5.32	5.68	5.51	5.89										
CON(C1CCC2(C)C(CCC3C2CCC2(C)C(C4=CC(=O)OC4)CCC32O)C1)C1OC(CO)C(O)C(O)C1O [20α, D-altroside]	< 4.60	< 4.60	< 4.60	< 4.60	< 4.60	< 4.60	< 4.60	< 4.60	< 4.60	< 4.60										
CON(C1CCC2(C)C(CCC3C2CCC2(C)C(C4=CC(=O)OC4)CCC32O)C1)C1OC(CO)C(O)CC1O [10α, 3-deoxy-D-glucoside]	< 4.60	< 4.60	< 4.60	< 4.60	< 4.60	< 4.60	< 4.60	< 4.60	< 4.60	< 4.60										
CON(C1CCC2(C)C(CCC3C2CCC2(C)C(C4=CC(=O)OC4)CCC32O)C1)C1OC(CO)C(O)C(O)C1O [21α, L-galactoside]	< 4.60	< 4.60	< 4.60	< 4.60	< 4.60	< 4.60	< 4.60	< 4.60	< 4.60	< 4.60										
CON(C1CCC2(C)C(CCC3C2CCC2(C)C(C4=CC(=O)OC4)CCC32O)C1)C1OC(C)C(O)C(O)C1O [7α, L-fucoside]	< 4.60	< 4.60	< 4.60	< 4.60	< 4.60	< 4.60	< 4.60	< 4.60	< 4.60	< 4.60										
CON(C1CCC2(C)C(CCC3C2CCC2(C)C(C4=CC(=O)OC4)CCC32O)C1)C1OC(CO)C(O)C(O)C1NC(C)=O [34β, N-acetyl-D-galactosaminoside]	< 4.60	< 4.60	< 4.60	4.77	4.70	< 4.60	5.19	< 4.60	4.77	< 4.60										
